Laboratory results reported in patent publication US20120029054A1, “RNA Interference Mediated Inhibition of GATA Binding Protein 3 (GATA3) Gene Expression Using Short Intefering Nucleic Acid (siNA)” (Merck Sharp & Dohme Corp., priority 2009, published 2012).

Columns and labels:
[1] = system: GATA3 mRNA; assay: GATA3 mRNA knock-down (Taqman qRT-PCR) after RNAiMax transfection of mouse RAG cells; type: cell-based; details: 10 nM siNA, 24 hrs, average of 2 experiments
Outline: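 Murine RAG cells, 5000/well, transfected 24 h after plating with siNA (10 nM final) complexed with RNAiMax, harvested after 24 h. GATA3 mRNA quantified by TaqMan qRT-PCR with GAPDH reference; % knock-down by comparative Ct (2^−ΔΔCt) versus non-targeting control siNA.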

[2] = system: GATA3 mRNA; assay: GATA3 mRNA knock-down (Taqman qRT-PCR) after RNAiMax transfection of human MCF7 cells; screen and IC50 dose response; type: cell-based; details: for % KD Human: 10 nM siNA, 24 hrs; for % KD Human / IC50: MCF7 cells; for IC50 / % KD GATA3 mRNA at 10 nM / % KD GATA3 10 nM: mean ± S.D.; for % KD GATA3 mRNA at 10 nM: Table 4, MCF7 cells, no assay mark printed (same values marked * in Table 3); for % KD GATA3 10 nM: Table 5, MCF7 cells, three experiments, no assay mark printed
Outline: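 MCF7 cells (5000/well, 24 h) transfected with siNA–RNAiMax complexes at 10 nM final siNA for 24 h without media change. GATA3 mRNA measured by TaqMan qRT-PCR, alongside β-actin and GAPDH probes. % knock-down by comparative Ct (2^−ΔΔCt) relative to non-targeting control siNA.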

[3] = system: human GAPDH mRNA; assay: GAPDH specificity screen in human MCF7 cells (β-Actin normalised qRT-PCR); type: cell-based; details: normalised to β-Actin, three experiments, mean ± S.D.
Procedure: A series of probes and primers were used to detect the various mRNA transcripts of the genes of β-Actin (human cell line only), and of GATA3 and GAPDH in mouse and human cell lines. All Taqman probes and primers for the experiments here-in described were supplied as pre-validated sets by Applied Biosystems, Inc. (see Table 2).
The assays were performed on an ABI 7900 instrument, according to the manufacturer's instructions. A TaqMan Gene Expression Master Mix (provided in the Cells-to-CT™, Applied Biosystems, Cat #4399002) was used. The PCR reactions were carried out at 50° C. for 2 min, 95° C. for 20 min followed by 40 cycles at 95° C. for 15 secs and 60° C. for 1 min.
The expression level of the gene of interest and % knock-down was calculated using Comparative Ct method: […]
These same three siNAs were tested for specificity in the human MCF7 cell line at 10 nM concentration to determine the effect of the GATA3 siNAs on the mRNA transcript of human GAPDH. In this assay, the samples from the primary screen, discussed above, O-Actin, a ubiquitously expressed ‘house-keeping’ gene, served as an endogenous control for normalization of the data.

[4] = system: GATA3 protein; assay: GATA3 Western Blot in transfected MCF7 cells (6-well plate); type: cell-based, human; details: 30 nM, 48 hours, average band ratio ± S.D.
Procedure: MCF7 cells were plated in 6-well plates at final counts of 70,000 cells/well in 2 ml of complete growth media. Transfection was performed using 2.5 uL of RNAiMax per well. Final concentration of siNAs was 30 nM (screen) and 30, 0.3, and 0.003 nM (dose response study). Protein lysates were harvested 24, 48, and 72 hours post-transfection (screen) and 72 hours post-transfection (dose response study). Protein lysates were prepared using Cell Disruption Buffer from the PARIS kit (Ambion, cat #1921) according to manufacturer's instructions. Protein concentration was measured using a Bradford Quick Start Kit (Bio-Rad, cat#500-0205).
The protein source for the Western Blot experiments were from transfection of MCF7 cells in a 6 well plate, as described above.
Protein samples were diluted 1:1 in 2× Laemmli buffer with 5% β-mercapto-ethanol and incubated at 95° C. for 5 minutes. 20-40 ug of protein was loaded in each lane of 10% Tris-HCl gel. One lane was designated for MagicMark Protein Standard (Invitrogen # LC5602). The gel was run at 100V for approximately 2 hours. Protein was transferred to a PVDF membrane at 100V for 60 minutes. Once the transfer was finished, the membrane was blocked in 1% Casein in PBS (BioRad Cat#161-0783) for 1 hour on a plate rocker at room temperature followed by the overnight incubation at 4° C. with mouse monoclonal anti-GATA3 primary antibody (Santa Cruz Biotechnology, cat# HG3-31) diluted 1:500 in 1% Casein in PBS. On the next day, the blot was washed 4×5 minutes in PBST (0.1% Tween-20 in PBS) solution and incubated for 30 minutes at room temperature with goat anti-mouse secondary antibody (Pierce Biotechnology, cat#3 31430) diluted 1:20,000 in 1% Casein. […]
The protein bands were quantified by computing their density which is defined by the ratio between the total intensity of all pixels and the area of the rectangle drawn around each band (intensity/mm^2). The density was calculated by the BioRad software.
The level of protein was quantified using the Bio-Rad VersaDoc Imager according to the protocols of that piece of equipment. […]

Row | Substance | % KD Mouse [1] [%] | % KD Human ([2]; * Hs00231122_m1 Taqman Assay) | % KD Human ([2]; ** Hs00922328_m1 Taqman Assay) | IC50 [2] [nM] | % KD GATA3 mRNA at 10 nM [2] [%] | % KD GATA3 10 nM [2] [%] | % KD GAPDH 10 nM [3] [%] | Density (GATA3)/Density (α-Tubulin) [4]
1 | 30260-DC: GATA3 siNA duplex, site 1691: sense B GcAuGAcucAcuGGAGGAc TTB (SEQ 73), antisense GUCcuccAGuGAGucAuGcUU (SEQ 74) (sense GCAUGACUCACUGGAGGACTT; antisense GUCCUCCAGUGAGUCAUGCUU; chemistry not fully specified) | 47 ± 0 | 60 ± 1* % | 69 ± 9** % | 0.254 ± 0.212 | 60 ± 1 | 60 ± 1 | −38 ± 9 | 0.025 ± 0.0007
2 | 30261-DC: GATA3 siNA duplex, site 1637: sense B cAuccAGAccAGAAAccGA TTB (SEQ 75), antisense UCGGuuucuGGucuGGAuGUU (SEQ 76) (sense CAUCCAGACCAGAAACCGATT; antisense UCGGUUUCUGGUCUGGAUGUU; chemistry not fully specified) | 72 ± 2 | 77 ± 4* % | 77 ± 4** % | 0.051 ± 0.03 | 77 ± 4 | 77 ± 4 | −17 ± 1 | 0.01 ± 0.00004
